Assay results: patent US20080199855A1, “Identification And Characterization Of A Subset of Glioblastomas Sensitive To Treatment With Imatinib” (priority 2004, published 2008)

Legend:
ERK = assay: Compound I-induced change in ERK phosphorylation in GBM cultures (immunoblotting); format: cell-based, human; conditions: 10 GBM cultures; 1 μM compound I for 1 h; 10% FCS
Procedure: (§1) Glioblastoma cell cultures were confluently plated in 12-well plate wells (Falcon). […] Samples, with normalized protein content, were subjected to SDS-PAGE using 12% gels. Control lysates from un-stimulated and PDGF-BB-stimulated PAE/Rβ cells were loaded on each gel. Samples were electrophoretically transferred to Hydrobond-C-Extra filters (Amersham Life Science). For detection of phosphorylated forms of ERK and Akt, filters were blocked for 1 h in Tris buffered saline pH 7.6 (TBS), 0.137 M NaCl and 0.0035 M Tris-HCl, containing 5% BSA, and incubated over night with 1 μg/ml anti phospho-p44/42 MAPK Thr202/Tyr204 (Cell Signaling Technology) or 1 μg/ml anti phospho-Akt Ser473 (Cell Signaling Technology) in TBS with 0.001% Tween-20 (TTBS). After three 10 min washes in TTBS, the filters were incubated for 1 h with horseradish peroxidase coupled sheep anti-rabbit antibody (Amersham Life Science) diluted 1:25000, and washed three times 10 min in TTBS. The antigens were detected using the Lumi-Light plus western blotting substrate (Roche) according to the manufacturer's instruction with an Intelligent Darkbox II digital scanner (FUJIFILM). […] Values were quantified by using the AIDA software version 3.10.039 (FUJIFILM). The relative expression and phosphorylation of ERK and Akt in the different GBM cultures, was determined by using the reference samples from the PAE/Rβ cells.

Akt = assay: Compound I-induced change in Akt phosphorylation in GBM cultures (immunoblotting); format: cell-based, human; conditions: 10 GBM cultures; 1 μM compound I for 1 h; 10% FCS
Procedure: as §1

GBM culture 5 = assay: cells; conditions: Homo sapiens, 96 h, read-out: growth inhibition (% reduction of increase in cell number)
GBM culture 18 = assay: cells; conditions: Homo sapiens, 96 h, read-out: growth inhibition (% reduction of increase in cell number)
GBM culture 21 = assay: cells; conditions: Homo sapiens, 96 h, read-out: growth inhibition (% reduction of increase in cell number)
GBM culture 30 = assay: cells; conditions: Homo sapiens, 96 h, read-out: growth inhibition (% reduction of increase in cell number)
GBM culture 34 = assay: cells; conditions: Homo sapiens, 96 h, read-out: growth inhibition (% reduction of increase in cell number)
GBM culture 35 = assay: cells; conditions: Homo sapiens, 96 h, read-out: growth inhibition (% reduction of increase in cell number)
GBM culture 38 = assay: cells; conditions: Homo sapiens, 96 h, read-out: growth inhibition (% reduction of increase in cell number)
GBM culture 6 = assay: cells; conditions: Homo sapiens, 96 h, read-out: growth inhibition (% reduction of increase in cell number)
GBM culture 7 = assay: cells; conditions: Homo sapiens, 96 h, read-out: growth inhibition (% reduction of increase in cell number)
GBM culture 9 = assay: cells; conditions: Homo sapiens, 96 h, read-out: growth inhibition (% reduction of increase in cell number)
GBM culture 11 = assay: cells; conditions: Homo sapiens, 96 h, read-out: growth inhibition (% reduction of increase in cell number)
GBM culture 31 = assay: cells; conditions: Homo sapiens, 96 h, read-out: growth inhibition (% reduction of increase in cell number)
GBM culture 45 = assay: cells; conditions: Homo sapiens, 96 h, read-out: growth inhibition (% reduction of increase in cell number)
GBM culture 8 = assay: cells; conditions: Homo sapiens, 96 h, read-out: growth inhibition (% reduction of increase in cell number)
GBM culture 27 = assay: cells; conditions: Homo sapiens, 96 h, read-out: growth inhibition (% reduction of increase in cell number)
GBM culture 13 = assay: Growth inhibition induced by compound I, GBM culture 13; conditions: Homo sapiens, 96 h, read-out: growth inhibition (% reduction of increase in cell number)

With `Cc1ccc(NC(=O)c2ccc(CN3CCN(C)CC3)cc2)cc1Nc1nccc(-c2cccnc2)n1` [compound I] the “compound I-induced change in specific phosphorylation of ERK” value (ERK) was “only moderate changes”, the “compound I-induced change in specific phosphorylation of Akt” value (Akt) was “only moderate changes” and the inhibition at 1 µM (GBM culture 5) was under 15%. The inhibition at 1 µM (GBM culture 18) was under 15%, the inhibition at 1 µM (GBM culture 21) was under 15% and the inhibition at 1 µM (GBM culture 30) was under 15%. The inhibition at 1 µM (GBM culture 34) was under 15%, the inhibition at 1 µM (GBM culture 35) was under 15% and the inhibition at 1 µM (GBM culture 38) was under 15%. It also gave an inhibition at 1 µM (GBM culture 6) of over 40%, an inhibition at 1 µM (GBM culture 7) of over 40% and an inhibition at 1 µM (GBM culture 9) of over 40%. It also gave an inhibition at 1 µM (GBM culture 11) of over 40%, an inhibition at 1 µM (GBM culture 31) of over 40% and an inhibition at 1 µM (GBM culture 45) of over 40%. For the same compound, the inhibition at 1 µM (GBM culture 8) was 20 to 40%, the inhibition at 1 µM (GBM culture 27) was 20 to 40% and the inhibition at 1 µM (GBM culture 13) was 20 to 40%.
